Columns and labels:
[1] = target: T1, NS3-NS4A protease (Hepatitis C virus genotype 1a, UniProt P27958); test: NS3-NS4A protease assay (NS3 inhibition assay, RETS1 substrate), Section B; format: biochemical; conditions: read-out: NS3-NS4A IC50
T1 construct: Recombinant E. coli or Baculovirus full-length NS3 was diluted to 3.33 μM with assay buffer; made in house; host or cells: E. coli or baculovirus (BV) system
Method in brief: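 Full-length NS3 (E. coli or baculovirus) precomplexed with excess NS4A-2 peptide, run at 2 nM (E. coli) or 3 nM (BV) NS3; compounds pre-incubated 10 min at room temperature before RETS1 substrate. Fluorescence (ex 335/em 495 nm) read kinetically 30 min; IC50 from four-parameter fit, converted to Ki via Ki=IC50/(1+[S]/Km).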

[2] = tested on: HCV sub-genomic replicon, GS4.3; test: Quantitation by ELISA of NPTII in the HCV sub-genomic replicon, GS4.3, Section B; format: cell-based; conditions: Hepatitis C virus; GS4.3 cells, 72 h incubation; read-out: Replicon EC50
Method in brief: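 GS4.3 cells (HuH-7 carrying HCV 1377/NS3-3′ replicon) were treated 72 h at 37 °C with inhibitors in 3-fold dilutions, 1% DMSO, no G418. Lysate NPTII was measured by ELISA (TMB, 450 nm). Signal as % of DMSO control; EC50 from 4-parameter fit.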

T1 sequence (P27958 1027-1657): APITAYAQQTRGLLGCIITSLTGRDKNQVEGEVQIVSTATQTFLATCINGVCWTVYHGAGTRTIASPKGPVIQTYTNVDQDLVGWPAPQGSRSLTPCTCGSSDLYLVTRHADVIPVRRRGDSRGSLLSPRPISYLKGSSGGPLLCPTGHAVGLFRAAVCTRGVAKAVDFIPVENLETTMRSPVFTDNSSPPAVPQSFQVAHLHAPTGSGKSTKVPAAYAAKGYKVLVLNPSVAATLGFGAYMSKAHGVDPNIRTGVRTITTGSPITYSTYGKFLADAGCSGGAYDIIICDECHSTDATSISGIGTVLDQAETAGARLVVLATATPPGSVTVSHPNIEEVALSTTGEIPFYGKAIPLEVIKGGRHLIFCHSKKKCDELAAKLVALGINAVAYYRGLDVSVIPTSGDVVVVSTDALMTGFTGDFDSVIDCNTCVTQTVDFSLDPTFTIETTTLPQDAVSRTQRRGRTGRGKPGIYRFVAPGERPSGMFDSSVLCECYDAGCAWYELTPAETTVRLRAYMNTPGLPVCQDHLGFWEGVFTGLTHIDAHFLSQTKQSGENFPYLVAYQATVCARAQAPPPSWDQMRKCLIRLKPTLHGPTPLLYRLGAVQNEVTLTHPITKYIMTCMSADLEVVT

Structure (SMILES)	IC50 [1]	EC50 [2]
CC(C)(C)OC(=O)N[C@H]1CCCCC/C=C\[C@@H]2C[C@@]2(C(=O)NS(=O)(=O)C2CC2)NC(=O)[C@@H]2C[C@@H](OC(=O)N3Cc4ccc(Br)cc4C3)CN2C1=O [AR00340526, (1S,4R,6S,14S,18R)-5-Bromo-1,3-dihydro-isoindole-2-carboxylic acid 14-tert-butoxycarbonylamino-4-cyclopropanesulfonylaminocarbonyl-2,15-dioxo-3,16-diaza-tricyclo[14.3.0.0^4,6]nonadec-7-en-18-yl ester]	< 100 nM	< 100 nM
CC(C)(C)OC(=O)N[C@H]1CCCCC/C=C\[C@@H]2C[C@@]2(C(=O)NS(=O)(=O)c2ccc(Cl)s2)NC(=O)[C@@H]2C[C@@H](OC(=O)N3Cc4ccc(Cl)cc4C3)CN2C1=O [AR00340173, (1S,4R,6S,14S,18R)-5-Chloro-1,3-dihydro-isoindole-2-carboxylic acid 14-tert-butoxycarbonylamino-4-(5-chloro-thiophene-2-sulfonylaminocarbonyl)-2,15-dioxo-3,16-diaza-tricyclo[14.3.0.0^4,6]nonadec-7-en-18-yl ester]	< 100 nM	< 10000 nM
CC(C)(C)OC(=O)N[C@H]1CCCCC/C=C\[C@@H]2C[C@@]2(C(=O)O)NC(=O)[C@@H]2C[C@@H](OC(=O)N3CCc4c(N)cccc4C3)CN2C1=O [AR00301745, (1S,4R,6S,14S,18R)-18-(5-Amino-3,4-dihydro-1H-isoquinoline-2-carbonyloxy)-14-tert-butoxycarbonylamino-2,15-dioxo-3,16-diaza-tricyclo[14.3.0.0^4,6]nonadec-7-ene-4-carboxylic acid]	< 1000 nM	< 10000 nM
CC(C)(C)NC(=O)N[C@H]1CCCCC/C=C\[C@@H]2C[C@@]2(C(=O)O)NC(=O)[C@@H]2C[C@@H](OC(=O)N3Cc4ccc(Cl)cc4C3)CN2C1=O [AR00320449, (1S,4R,6S,14S,18R)-14-(3-tert-Butyl-ureido)-18-(5-chloro-1,3-dihydro-isoindole-2-carbonyloxy)-2,15-dioxo-3,16-diaza-tricyclo[14.3.0.0^4,6]nonadec-7-ene-4-carboxylic acid]	< 100 nM	< 10000 nM
CC1(C)CN(C(=O)O[C@@H]2C[C@H]3C(=O)N[C@]4(C(=O)NS(=O)(=O)C5CC5)C[C@H]4/C=C\CCCCC[C@H](NC(=O)O[C@H]4CCOC4)C(=O)N3C2)Cc2ccccc21 [AR00314654, (1S,4R,6S,14S,18R)-4,4-Dimethyl-3,4-dihydro-1H-isoquinoline-2-carboxylic acid 4-cyclopropanesulfonylaminocarbonyl-2,15-dioxo-14-(tetrahydro-furan-3S-yloxycarbonylamino)-3,16-diaza-tricyclo[14.3.0.0^4,6]nonadec-7-en-18-yl ester]	< 100 nM	< 100 nM
CC(C)(C)OC(=O)N[C@H]1CCCCC/C=C\[C@@H]2C[C@@]2(C(=O)NS(=O)(=O)c2ccc(C(=O)O)cc2)NC(=O)[C@@H]2C[C@@H](OC(=O)N3Cc4cccc(F)c4C3)CN2C1=O [AR00365438, (1S,4R,6S,14S,18R)-4-Fluoro-1,3-dihydro-isoindole-2-carboxylic acid 14-tert-butoxycarbonylamino-4-(4-carboxy-benzenesulfonylaminocarbonyl)-2,15-dioxo-3,16-diaza-tricyclo[14.3.0.0^4,6]nonadec-7-en-18-yl ester]	< 100 nM	< 100 nM
CN(C)c1cccc2c1CCN(C(=O)O[C@@H]1C[C@H]3C(=O)N[C@]4(C(=O)O)C[C@H]4/C=C\CCCCC[C@H](NC(=O)OC(C)(C)C)C(=O)N3C1)C2 [AR00315997, (1S,4R,6S,14S,18R)-14-tert-Butoxycarbonylamino-18-(5-dimethylamino-3,4-dihydro-1H-isoquinoline-2-carbonyloxy)-2,15-dioxo-3,16-diaza-tricyclo[14.3.0.0^4,6]nonadec-7-ene-4-carboxylic acid]	< 1000 nM	< 10000 nM
CC(C)(C)OC(=O)N[C@H]1CCCCC/C=C\[C@@H]2C[C@@]2(C(=O)NS(=O)(=O)C2CC2)NC(=O)[C@@H]2C[C@@H](OC(=O)N3CCc4nc(Nc5ccccc5)sc4C3)CN2C1=O [AR00311814, (1S,4R,6S,14S,18R)-2-Phenylamino-6,7-dihydro-4H-thiazolo[5,4-c]pyridine-5-carboxylic acid 14-tert-butoxycarbonylamino-4-cyclopropanesulfonylaminocarbonyl-2,15-dioxo-3,16-diaza-tricyclo[14.3.0.0^4,6]nonadec-7-en-18-yl ester]	< 100 nM	< 10000 nM
O=C(N[C@H]1CCCCC/C=C\[C@@H]2C[C@@]2(C(=O)NS(=O)(=O)C2CC2)NC(=O)[C@@H]2C[C@@H](OC(=O)N3CCc4ccccc4C3)CN2C1=O)O[C@@H]1CCOC1 [AR00304163, (1S,4R,6S,14S,18R)-3,4-Dihydro-1H-isoquinoline-2-carboxylic acid 4-cyclopropanesulfonylaminocarbonyl-2,15-dioxo-14-(tetrahydro-furan-3R-yloxycarbonylamino)-3,16-diaza-tricyclo[14.3.0.0^4,6]nonadec-7-en-18-yl ester]	< 100 nM	< 100 nM
CC(=O)Nc1nnc(S(=O)(=O)NC(=O)[C@@]23C[C@H]2/C=C\CCCCC[C@H](NC(=O)OC(C)(C)C)C(=O)N2C[C@H](OC(=O)N4Cc5ccccc5C4)C[C@H]2C(=O)N3)s1 [AR00334247, (1S,4R,6S,14S,18R)-1,3-Dihydro-isoindole-2-carboxylic acid 4-(5-acetylamino-[1,3,4]thiadiazole-2-sulfonylaminocarbonyl)-14-tert-butoxycarbonylamino-2,15-dioxo-3,16-diaza-tricyclo[14.3.0.0^4,6]nonadec-7-en-18-yl ester]	< 100 nM	< 1000 nM
CC(C)(C)OC(=O)N[C@H]1CCCCC/C=C\[C@@H]2C[C@@]2(C(=O)NS(=O)(=O)C2CC2)NC(=O)[C@@H]2C[C@@H](OC(=O)N3Cc4ccc(OCCn5cccn5)cc4C3)CN2C1=O [AR00364924, (1S,4R,6S,14S,18R)-5-(2-Pyrazol-1-yl-ethoxy)-1,3-dihydro-isoindole-2-carboxylic acid 14-tert-butoxycarbonylamino-4-cyclopropanesulfonylaminocarbonyl-2,15-dioxo-3,16-diaza-tricyclo[14.3.0.0^4,6]nonadec-7-en-18-yl ester]	< 100 nM	< 100 nM
CC(C)(C)OC(=O)N[C@H]1CCCCC/C=C\[C@@H]2C[C@@]2(C(=O)NS(C)(=O)=O)NC(=O)[C@@H]2C[C@@H](OC(=O)N3Cc4ccccc4C3)CN2C1=O [AR00333803, (1S,4R,6S,14S,18R)-1,3-Dihydro-isoindole-2-carboxylic acid 14-tert-butoxycarbonylamino-4-methanesulfonylaminocarbonyl-2,15-dioxo-3,16-diaza-tricyclo[14.3.0.0^4,6]nonadec-7-en-18-yl ester]	< 100 nM	< 1000 nM
CC(C)(C)OC(=O)N[C@H]1CCCCC/C=C\[C@@H]2C[C@@]2(C(=O)NS(=O)(=O)C2CC2)NC(=O)[C@@H]2C[C@@H](OC(=O)N3Cc4cccc(N)c4C3)CN2C1=O [AR00334385, (1S,4R,6S,14S,18R)-4-Amino-1,3-dihydro-isoindole-2-carboxylic acid 14-tert-butoxycarbonylamino-4-cyclopropanesulfonylaminocarbonyl-2,15-dioxo-3,16-diaza-tricyclo[14.3.0.0^4,6]nonadec-7-en-18-yl ester]	< 100 nM	< 100 nM

From patent US7491794B2, “Macrocyclic compounds as inhibitors of viral replication” (Intermune, Inc., priority 2003, dated 2009)
